The source made the active and inactive calls.
Assays:
[1] = Luminescence Cell-Based Dose Confirmation HTS to Identify Activators of 5'UTR Stem-Loop Driven Alpha-Synuclein mRNA Translation in H4 Neuroglioblastoma Cells. [Related pubchem assays: 1829 (Project Summary), 1814 (Primary HTS)]; assay type: functional
[2] = target: T1, Sentrin-specific protease 6 (Homo sapiens, UniProt Q9GZR1); assay type: functional;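 note: Luminescence-based dose-response confirmatory assay of SENP6 inhibition, following up an ultra-high-throughput screen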
T1 sequence (Q9GZR1 whole entry): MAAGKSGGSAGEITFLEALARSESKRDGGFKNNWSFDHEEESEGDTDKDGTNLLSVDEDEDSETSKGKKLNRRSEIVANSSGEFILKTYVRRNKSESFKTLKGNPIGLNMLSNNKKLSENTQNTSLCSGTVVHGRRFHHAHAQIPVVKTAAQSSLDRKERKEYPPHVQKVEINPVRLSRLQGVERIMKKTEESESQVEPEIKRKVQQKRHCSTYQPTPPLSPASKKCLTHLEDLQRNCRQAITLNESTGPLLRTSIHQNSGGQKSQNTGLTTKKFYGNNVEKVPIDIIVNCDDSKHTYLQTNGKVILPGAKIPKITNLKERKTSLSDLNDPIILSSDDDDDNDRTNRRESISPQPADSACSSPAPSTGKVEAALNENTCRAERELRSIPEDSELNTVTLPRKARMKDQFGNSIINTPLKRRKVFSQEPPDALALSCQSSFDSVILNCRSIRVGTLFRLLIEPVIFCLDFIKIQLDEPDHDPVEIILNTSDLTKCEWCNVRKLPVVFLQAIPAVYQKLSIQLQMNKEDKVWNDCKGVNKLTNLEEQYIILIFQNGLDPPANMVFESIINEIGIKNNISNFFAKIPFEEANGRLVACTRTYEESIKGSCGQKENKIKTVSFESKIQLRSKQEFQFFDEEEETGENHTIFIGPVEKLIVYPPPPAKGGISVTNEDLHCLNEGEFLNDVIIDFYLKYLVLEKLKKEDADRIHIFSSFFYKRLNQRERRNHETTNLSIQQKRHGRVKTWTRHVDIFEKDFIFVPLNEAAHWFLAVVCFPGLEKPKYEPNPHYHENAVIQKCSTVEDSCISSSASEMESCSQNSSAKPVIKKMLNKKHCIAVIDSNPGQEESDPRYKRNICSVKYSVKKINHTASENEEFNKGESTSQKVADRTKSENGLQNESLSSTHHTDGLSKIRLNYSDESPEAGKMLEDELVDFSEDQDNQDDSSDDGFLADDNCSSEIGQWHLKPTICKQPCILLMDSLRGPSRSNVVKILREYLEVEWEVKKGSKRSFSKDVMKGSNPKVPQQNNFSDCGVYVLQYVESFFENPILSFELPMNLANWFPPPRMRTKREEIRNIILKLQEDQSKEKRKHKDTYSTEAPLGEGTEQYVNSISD

[3] = target: T2, Sentrin-specific protease 8 (Homo sapiens, UniProt Q96LD8); assay type: functional;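 note: luminescence read-out of SENP8 inhibition, dose-response confirmation following an ultra-high-throughput screen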
T2 sequence (Q96LD8 whole entry): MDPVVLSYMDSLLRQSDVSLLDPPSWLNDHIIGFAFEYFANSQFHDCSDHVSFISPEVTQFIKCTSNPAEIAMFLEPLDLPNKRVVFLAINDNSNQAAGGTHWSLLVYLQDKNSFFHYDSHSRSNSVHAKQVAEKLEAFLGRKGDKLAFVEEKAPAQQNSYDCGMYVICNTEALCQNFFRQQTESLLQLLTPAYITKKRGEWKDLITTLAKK

[4] = tested on: H4; assay: Luminescence Cell-Based Dose Response HTS to Identify Activators of 5'UTR Stem-Loop Driven Prion Protein mRNA Translation in H4 Neuroglioblastoma Cells. [Related pubchem assays: 1829 (Project Summary), 1814 (Primary HTS)]; assay type: functional; conditions: Homo sapiens
[5] = target: T3, Sentrin-specific protease 7 (Homo sapiens, UniProt Q9BQF6); assay type: functional;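 note: Luminescence-based dose-response confirmation of ultra-high-throughput screening hits, measuring inhibition of SENP7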
T3 sequence (Q9BQF6 whole entry): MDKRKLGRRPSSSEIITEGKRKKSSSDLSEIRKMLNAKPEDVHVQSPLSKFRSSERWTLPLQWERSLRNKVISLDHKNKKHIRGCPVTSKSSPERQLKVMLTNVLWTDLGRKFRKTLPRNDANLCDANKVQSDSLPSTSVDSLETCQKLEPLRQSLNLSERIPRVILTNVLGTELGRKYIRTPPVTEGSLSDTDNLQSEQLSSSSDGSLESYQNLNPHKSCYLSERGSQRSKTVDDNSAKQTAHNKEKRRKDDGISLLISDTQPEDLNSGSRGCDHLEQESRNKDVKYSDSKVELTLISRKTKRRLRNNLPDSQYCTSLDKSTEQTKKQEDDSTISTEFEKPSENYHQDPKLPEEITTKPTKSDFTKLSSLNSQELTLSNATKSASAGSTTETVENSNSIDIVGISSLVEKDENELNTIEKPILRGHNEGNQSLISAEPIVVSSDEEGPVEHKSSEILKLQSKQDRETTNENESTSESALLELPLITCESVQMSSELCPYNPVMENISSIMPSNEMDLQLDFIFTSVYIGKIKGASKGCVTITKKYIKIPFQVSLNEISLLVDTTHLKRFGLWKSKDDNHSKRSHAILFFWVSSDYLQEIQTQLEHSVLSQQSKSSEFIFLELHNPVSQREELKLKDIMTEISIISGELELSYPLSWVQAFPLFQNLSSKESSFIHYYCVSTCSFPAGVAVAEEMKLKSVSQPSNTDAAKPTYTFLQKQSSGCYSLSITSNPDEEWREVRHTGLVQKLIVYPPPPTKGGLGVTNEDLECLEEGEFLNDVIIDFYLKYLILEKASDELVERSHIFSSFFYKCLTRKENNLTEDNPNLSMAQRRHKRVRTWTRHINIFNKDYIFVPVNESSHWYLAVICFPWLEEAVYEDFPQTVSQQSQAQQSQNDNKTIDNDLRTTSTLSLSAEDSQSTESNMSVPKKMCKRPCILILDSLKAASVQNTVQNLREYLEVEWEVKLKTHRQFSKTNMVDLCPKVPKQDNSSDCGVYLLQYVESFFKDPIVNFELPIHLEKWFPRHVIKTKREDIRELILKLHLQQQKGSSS

[6] = Luminescence Cell-Based Dose Response HTS to Identify Activators of Luciferase Translation or Activity in H4 […] Cells. [Related pubchem assays: 1829 (Project Summary), 1814 (Primary HTS)]; assay type: functional
[7] = target: T4, Caspase-3 (Homo sapiens, UniProt P42574); assay type: functional;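 note: Dose-response selectivity test against caspase-3 for candidate inhibitors of sentrin-specific proteases (SENPs)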
T4 sequence (P42574 whole entry): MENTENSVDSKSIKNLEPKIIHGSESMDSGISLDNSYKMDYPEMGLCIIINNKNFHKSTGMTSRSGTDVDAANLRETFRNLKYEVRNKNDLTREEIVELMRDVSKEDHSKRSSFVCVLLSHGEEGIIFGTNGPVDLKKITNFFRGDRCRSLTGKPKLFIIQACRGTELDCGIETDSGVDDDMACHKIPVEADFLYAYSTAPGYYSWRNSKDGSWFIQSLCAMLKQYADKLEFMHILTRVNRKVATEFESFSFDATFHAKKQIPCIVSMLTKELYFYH

[8] = cells
[9] = target: T5, Oxysterols receptor LXR-beta (Homo sapiens, UniProt P55055); assay type: functional, cell-based;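 note: Cell-based luminescence dose-response assay of agonist activity at LXR, run as a confirmatory counterscreen to a daf-12 agonist screen; HEK293 cells with Gal4-LXR fusion and GAL4-driven luciferase reporter; agonist potency from rising luciferase signal of a Gal4-LXR reporter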
T5 sequence (P55055 whole entry): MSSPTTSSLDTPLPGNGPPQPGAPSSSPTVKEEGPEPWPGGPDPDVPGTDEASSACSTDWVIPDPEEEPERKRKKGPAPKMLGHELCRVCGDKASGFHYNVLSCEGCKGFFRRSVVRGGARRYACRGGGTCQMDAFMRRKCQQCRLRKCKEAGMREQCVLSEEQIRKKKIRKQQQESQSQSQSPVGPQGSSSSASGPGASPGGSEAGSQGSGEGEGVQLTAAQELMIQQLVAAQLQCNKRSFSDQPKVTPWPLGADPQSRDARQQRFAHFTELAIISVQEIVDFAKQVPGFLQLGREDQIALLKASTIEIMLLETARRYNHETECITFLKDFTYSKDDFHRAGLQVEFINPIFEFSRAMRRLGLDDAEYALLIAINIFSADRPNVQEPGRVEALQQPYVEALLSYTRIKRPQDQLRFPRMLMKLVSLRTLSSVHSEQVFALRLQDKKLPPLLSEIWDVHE

SMILES	EC50 [1]	IC50 [2]	IC50 [3]	EC50 [4]	IC50 [5]	EC50 [6]	IC50 [7]	EC50 [8]	EC50 [9]
O=c1cc(-c2cccs2)oc2ccc(Cl)cc12	3.83 µM (active)	> 100 µM (inactive)	> 100 µM (inactive)	> 120 µM (not active)	7.72 µM (active)	5.5 µM (active)	18 µM (active)		
C(=N\Nc1ccccc1)/c1nc2ccccc2s1		> 100 µM (inactive)	> 100 µM (inactive)		1.6 µM (active)		26 µM (active)	> 67.5 µM (inactive)	> 67.5 µM (inactive)

From ChEMBL document CHEMBL1201862, “PubChem BioAssay data set” (2004)
